Test results as given in paper PMC6599039, “Structural and functional analysis of the role of the chaperonin CCT in mTOR complex assembly” (Nature Communications, 2019).

Biological target: T1, CCT8 in the human mLST8-CCT complex (Homo sapiens, UniProt P50990)
T1 construct: isolated from HEK-293T cells co-expressing His6-myc-PhLP1; no nucleotide added; with T-complex protein 1 subunit alpha; T-complex protein 1 subunit beta; T-complex protein 1 subunit gamma; T-complex protein 1 subunit delta; T-complex protein 1 subunit epsilon; T-complex protein 1 subunit zeta; T-complex protein 1 subunit eta; Target of rapamycin complex subunit LST8
T1 sequence (P50990 2-548): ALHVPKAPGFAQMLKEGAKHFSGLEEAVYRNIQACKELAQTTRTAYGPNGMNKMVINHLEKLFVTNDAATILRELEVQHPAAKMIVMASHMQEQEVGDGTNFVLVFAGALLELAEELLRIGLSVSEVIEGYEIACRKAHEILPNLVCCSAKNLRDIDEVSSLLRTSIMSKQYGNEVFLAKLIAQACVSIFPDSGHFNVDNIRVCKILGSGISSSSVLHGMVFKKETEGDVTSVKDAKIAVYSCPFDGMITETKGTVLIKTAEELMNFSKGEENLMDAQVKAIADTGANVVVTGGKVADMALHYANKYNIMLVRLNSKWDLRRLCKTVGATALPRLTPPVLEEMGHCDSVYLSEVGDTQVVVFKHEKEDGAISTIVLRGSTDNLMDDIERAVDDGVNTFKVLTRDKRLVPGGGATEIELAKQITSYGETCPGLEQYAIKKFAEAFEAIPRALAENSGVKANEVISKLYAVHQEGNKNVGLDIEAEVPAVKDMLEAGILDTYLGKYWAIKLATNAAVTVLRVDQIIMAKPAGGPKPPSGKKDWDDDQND
Assay: cryo-EM structure of the complex ([…] A)
Settings: co-purified nucleotide, none added; equatorial nucleotide-binding pocket of both CCT8 subunits

Nc1ncnc2c1ncn2[C@@H]1O[C@H](COP(=O)(O)OP(=O)(O)O)[C@@H](O)[C@H]1O [ADP]
cryo-EM structure of the complex (4.0 A): nucleotide-binding pocket of either of the CCT8 subunits revealed electron density that is clearly attributable to ADP
